# In patent publication US20070049593A1 (priority 2004, published 2007):
# Structures can show the parent of a compound that is named as a salt.
# Biological target: T1, HCV polymerase (Hepatitis C virus genotype 1b, UniProt P26663)
# T1 construct: a region encoding NS5B (J Virol 1991 March, 65(3), 1105-13, 544 amino acids after deletion of 47 amino acids on the C-terminal); 6xHis (C); made in house; host or cells: Escherichia coli
# Assay: biochemical
# Design: species or system HCV BK strain
# In short: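 Recombinant HCV BK-strain NS5B (C-terminal 47 aa deleted, His6-tagged, E. coli), 0.5 μg/ml, run with 5 μg/ml in vitro-transcribed RNA template (polyU/3′X), ATP/GTP/CTP 50 μM, UTP 2 μM plus [3H]UTP, pH 7.5, 25° C, 90 min. TCA-precipitated RNA counted by scintillation; IC50 from activity with vs without compound.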
# T1 sequence (P26663 2420-2963): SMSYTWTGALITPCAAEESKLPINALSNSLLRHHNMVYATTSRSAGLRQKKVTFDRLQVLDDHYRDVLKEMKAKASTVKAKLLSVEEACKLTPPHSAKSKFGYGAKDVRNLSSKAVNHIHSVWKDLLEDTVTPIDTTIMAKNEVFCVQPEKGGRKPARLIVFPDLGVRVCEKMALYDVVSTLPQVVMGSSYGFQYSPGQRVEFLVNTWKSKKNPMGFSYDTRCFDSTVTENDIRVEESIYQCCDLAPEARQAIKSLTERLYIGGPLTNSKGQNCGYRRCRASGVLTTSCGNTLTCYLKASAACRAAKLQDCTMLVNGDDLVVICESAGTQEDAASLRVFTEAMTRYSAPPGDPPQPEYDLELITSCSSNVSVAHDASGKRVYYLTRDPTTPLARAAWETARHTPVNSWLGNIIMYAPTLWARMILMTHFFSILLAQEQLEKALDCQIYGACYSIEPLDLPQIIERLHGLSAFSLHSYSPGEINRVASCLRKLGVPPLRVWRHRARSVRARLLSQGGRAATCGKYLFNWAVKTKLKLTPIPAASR
row,SMILES,IC50
1,"COc1ccc2c(c1)OCCn1c-2c(C2CCCCC2)c2ccc(C(=O)NC3(c4nc5ccc(C(=O)O)cc5[nH]4)CCN(C)CC3)cc21 [Example 2-449, 2-{4-[(12-cyclohexyl-3-methoxy-6,7-dihydro-5-oxa-7a-azadibenzo[a,e]azulene-9-carbonyl)amino]-1-methylpiperidin-4-yl}-3H-benzimidazole-5-carboxylic acid]",< 100 nM
2,"COc1ccc2c(c1)OCCn1c-2c(C2CCCCC2)c2ccc(C(=O)N[C@@H](Cc3ccc(O)cc3)C3=NCCN3)cc21 [Example 2-450, N—[(S)-1-(4,5-dihydro-1H-imidazol-2-yl)-2-(4-hydroxyphenyl)ethyl]-12-cyclohexyl-3-methoxy-6,7-dihydro-5-oxa-7a-azadibenzo[a,e]azulene-9-carboxamide]",< 100 nM
3,"COc1ccc2c(c1)OCCn1c-2c(C2CCCCC2)c2ccc(C(=O)NC3(C(=O)Nc4ccc(/C=C/C(=O)O)cc4OC)CCC3)cc21 [Example 2-451, (E)-3-[4-({1-[(12-cyclohexyl-3-methoxy-6,7-dihydro-5-oxa-7a-azadibenzo[a,e]azulene-9-carbonyl)amino]cyclobutanecarbonyl}amino)-3-methoxyphenyl]acrylic acid]",< 100 nM
4,"COc1ccc2c(c1)OCCn1c-2c(C2CCCCC2)c2ccc(C(=O)N[C@@H](Cc3ccc(O)cc3)C(=O)OC(C)(C)C)cc21 [Example 2-452, tert-butyl (S)-2-[(12-cyclohexyl-3-methoxy-6,7-dihydro-5-oxa-7a-azadibenzo[a,e]azulene-9-carbonyl)amino]-3-(4-hydroxyphenyl)propionate]",< 100 nM
5,"COc1ccc2c(c1)OCCn1c-2c(C2CCCCC2)c2ccc(C(=O)N[C@@H](Cc3ccc(O)cc3)c3nc(=O)on3C)cc21 [Example 2-453, N—[(S)-2-(4-hydroxyphenyl)-1-(2-methyl-5-oxo-2,5-dihydro-1,2,4-oxadiazol-3-yl)ethyl]-12-cyclohexyl-3-methoxy-6,7-dihydro-5-oxa-7a-azadibenzo[a,e]azulene-9-carboxamide]",< 100 nM
6,"COc1ccc2c(c1)OCCn1c-2c(C2CCCCC2)c2ccc(C(=O)N[C@@H](Cc3ccc(O)cc3)c3nnnn3C)cc21 [Example 2-454, N—[(S)-2-(4-hydroxyphenyl)-1-(1-methyl-1H-tetrazol-5-yl)ethyl]-12-cyclohexyl-3-methoxy-6,7-dihydro-5-oxa-7a-azadibenzo[a,e]azulene-9-carboxamide]",< 100 nM
7,"COc1ccc2c(c1)OCCn1c-2c(C2CCCCC2)c2ccc(C(=O)NC3(c4nc5cc(OCC(=O)O)ccc5[nH]4)CCC3)cc21 [Example 2-455, (2-{1-[(12-cyclohexyl-3-methoxy-6,7-dihydro-5-oxa-7a-azadibenzo[a,e]azulene-9-carbonyl)amino]cyclobutyl}-1H-benzimidazol-5-yloxy)acetic acid]",< 100 nM
8,"CCN1CCN(CCOc2cccc3c2OCCn2c-3c(C3CCCCC3)c3ccc(C(=O)O)cc32)CC1 [Example 2-456, 12-cyclohexyl-4-[2-(4-ethylpiperazin-1-yl)ethoxy]-6,7-dihydro-5-oxa-7a-azadibenzo[a,e]azulene-9-carboxylic acid dihydrochloride]",< 100 nM
9,"CC(C)(C)OC(=O)N1CCC(CCOc2cccc3c2OCCn2c-3c(C3CCCCC3)c3ccc(C(=O)O)cc32)CC1 [Example 2-457, 4-[2-(1-tert-butoxycarbonylpiperidin-4-yl)ethoxy]-12-cyclohexyl-6,7-dihydro-5-oxa-7a-azadibenzo[a,e]azulene-9-carboxylic acid]",< 100 nM
10,"O=C(O)c1ccc2c(C3CCCCC3)c3n(c2c1)CCOc1c(OCCC2CCNCC2)cccc1-3 [Example 2-458, 12-cyclohexyl-4-[2-(piperidin-4-yl)ethoxy]-6,7-dihydro-5-oxa-7a-azadibenzo[a,e]azulene-9-carboxylic acid monohydrochloride]",< 100 nM
11,"CN1CCC(CCOc2cccc3c2OCCn2c-3c(C3CCCCC3)c3ccc(C(=O)O)cc32)CC1 [Example 2-459, 12-cyclohexyl-4-[2-(1-methylpiperidin-4-yl)ethoxy]-6,7-dihydro-5-oxa-7a-azadibenzo[a,e]azulene-9-carboxylic acid monohydrochloride]",< 100 nM
